Data set [1] in a line: Toxicity in nude mouse assessed as effect on gamma-glutamyl transpeptidase level in serum at 40 mg/kg, iv administered qd for 3 days (Rvb < 2 U/L). The class given is organism-based. The note with it: in vivo, 72 h, time 3 day.
The nature of data set [2]: Toxicity in nude mouse xenografted with human MDA-MB-231 cells assessed as effect on body weight at 20 to 40 mg/kg, iv administered every 2 days for 14 days. The class given is organism-based. The note with it: in vivo, 336 h, dose 20-40 mg/kg, time 14 day. In general terms: A xenograft is tissue or cells of one species grown in another, often human tumour cells in immunodeficient mice.

Data set [3] can be described thus: Toxicity in nude mouse assessed as ratio of effect on albumin level to effect on globulin level in serum at 40 mg/kg, iv administered qd for 3 days (reference value: 1.94). The settings on record: in vivo, 72 h, time 3 day. The class given is organism-based.
The nature of data set [4]: Toxicity in nude mouse assessed as effect on basophil level at 40 mg/kg, iv administered qd for 3 days (reference value: 11.70 %). The class given is organism-based. The settings on record: in vivo, 72 h, time 3 day.
The nature of data set [5]: Toxicity in nude mouse assessed as ratio of effect on aspartate aminotransferase level […] level in serum at 40 mg/kg, iv administered qd for 3 days (reference value: 1.38). The settings on record: in vivo, 72 h, time 3 day. The class given is organism-based.
Data set [6] is described as follows: Acute toxicity in BALB/c mouse assessed as animal survival at […], iv administered as single dose measured after 14 days. The class given is organism-based. The settings on record: in vivo, time 14 day.
The nature of data set [7]: Toxicity in nude mouse assessed as effect on aspartate aminotransferase level in serum at 40 mg/kg, iv administered qd for 3 days (reference value: 424 U/L). Format: organism-based. The note with it: in vivo, 72 h, time 3 day.
Data set [8] is described as follows: Toxicity in nude mouse assessed as effect on mean corpuscular hemoglobin concentration at 40 mg/kg, iv administered qd for 3 days (reference value: 473 g/L). The settings on record: in vivo, 72 h, time 3 day. Format: organism-based.
Data set [9] concerns MDA-MB-231. Put plainly: Antitumor activity against mouse xenografted with human MDA-MB-231 cells assessed as increase in tumor necrosis area at 20 to 40 mg/kg, iv administered every 2 days for 14 days by H and E staining based assay. Format: functional, organism-based. The settings on record: dose 20-40 mg/kg, time 14.0 day.
In another data set the test system is MCF7. The experiment in a line: Antiproliferative activity against human MCF7 cells assessed as inhibition of cell growth incubated for 48 hrs in absence of beta-glucuronidase by MTT assay. The class given is functional, cell-based. The note with it: MCF7, 48 h. On the technique in general: Formazan colour is commonly taken as a measure of viable cells.
The nature of data set [10]: Toxicity in nude mouse assessed as effect on alkaline phosphatase level in serum at 40 mg/kg, iv administered qd for 3 days (reference value: 66 U/L). The class given is organism-based. The note with it: in vivo, 72 h, time 3 day.
Data set [11] relates to MDA-MB-231. The experiment in a line: Antitumour activity against human MDA-MB-231 cells xenografted in nude mouse assessed as tumor growth inhibition at 20 mg/kg,iv administered every 2 days for 14 days. Format: functional. The settings on record: MDA-MB-231, 336 h, time 14 day, read-out: TGI.

Calls of active or inactive are those of the source. The rule behind the calls is not given here.

A word on the IC50: it is the midpoint of a concentration-inhibition curve.

With `COc1ccc([C@H]2[C@H](CO)C(=O)N2c2cc(OC)c(OC)c(OC)c2)cc1OCc1ccc(O[C@@H]2O[C@H](C(=O)O)[C@@H](O)[C@H](O)[C@H]2O)cc1`, the Activity in data set [1] was less than 2 U/L; in [2], “Non-Toxic”; in data set [4] it was 6.8%; in data set [7] it was 503 U/L; in [8], 512 g/L; in [10], 56 U/L. In addition, the Ratio in [3] turned out to be 1.84; in data set [5], 1.59. For the same compound, in data set [6], the survival at 336 h amounted to 75%. Also, the outcome in the data set with MDA-MB-231 [9] was Active. Also, in the data set on MCF7, the IC50 is greater than 50 µM. For the same compound, the inhibition in vivo at 20 mg/kg in the data set on MDA-MB-231 [11] stood at 50%.

Values taken from ChEMBL document CHEMBL5154856, “Targeting the tumor microenvironment by an enzyme-responsive prodrug of tubulin destabilizer for triple-negative breast cancer therapy with high safety” (Eur J Med Chem, 2022).
